Test results from ChEMBL document CHEMBL1201862, “PubChem BioAssay data set” (2004).
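In this assay, cells in 96-well plates receive the compound at five concentrations for 48 hours. Endpoints are linearly interpolated between the surrounding concentrations. At the GI50, growth is halved.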 Calls of active or inactive are those of the source. Rule as the data show it: active = GI50 up to about 1.1 µM and inactive = higher.

Experiments:
Assay in all cases: inhibition of tumour cell growth, NCI panel, 48 h
SK-MEL-28 = system: SK-MEL-28
SW-620 = system: SW-620
HT-29 = system: HT-29
ACHN = system: ACHN
NCI-H226 = system: NCI-H226
786-0 = system: 786-0
SF-539 = system: SF-539
KM12 = system: KM12
OVCAR-8 = system: OVCAR-8
SK-MEL-5 = system: SK-MEL-5
A498 = system: A498
K562 = system: K562
HOP-92 = system: HOP-92
EKVX = system: EKVX
LOX IMVI = system: LOX IMVI
UACC-257 = system: UACC-257
TK-10 = system: TK-10
SN12C = system: SN12C
RXF 393 = system: RXF 393
UACC-62 = system: UACC-62

Row | SMILES | GI50 (SK-MEL-28) | GI50 (SW-620) | GI50 (HT-29) | GI50 (ACHN) | GI50 (NCI-H226) | GI50 (786-0) | GI50 (SF-539) | GI50 (KM12) | GI50 (OVCAR-8) | GI50 (SK-MEL-5) | GI50 (A498) | GI50 (K562) | GI50 (HOP-92) | GI50 (EKVX) | GI50 (LOX IMVI) | GI50 (UACC-257) | GI50 (TK-10) | GI50 (SN12C) | GI50 (RXF 393) | GI50 (UACC-62)
1 | COc1ccccc1N1C(=O)CSC1c1cccc(Oc2ccccc2)c1 (stereo not given) | 17.8 µM (inactive) | 21.9 µM (inactive) | 20.1 µM (inactive) | 20.9 µM (inactive) | 20.3 µM (inactive) | 17.7 µM (inactive) | 17.2 µM (inactive) | 20.1 µM (inactive) | 17.9 µM (inactive) | 16.3 µM (inactive) | 20.7 µM (inactive) | 32.8 µM (inactive) | 12.7 µM (inactive) | 17.2 µM (inactive) | 17.1 µM (inactive) | 16.7 µM (inactive) | 25.4 µM (inactive) | 17.2 µM (inactive) | 17.8 µM (inactive) | 14.9 µM (inactive)
2 | CC(=O)OCC1OC(Sc2nc(-c3ccccc3)c(C#N)c(=O)n2C2OC(COC(C)=O)C(OC(C)=O)C(OC(C)=O)C2OC(C)=O)C(OC(C)=O)C(OC(C)=O)C1OC(C)=O (stereo not given) | > 100 µM (inactive) | > 100 µM (inactive) | > 100 µM (inactive) | > 100 µM (inactive) | > 100 µM (inactive) | > 100 µM (inactive) | > 100 µM (inactive) | > 100 µM (inactive) | > 100 µM (inactive) | > 100 µM (inactive) | > 100 µM (inactive) | 32.2 µM (inactive) | > 100 µM (inactive) | > 100 µM (inactive) | > 100 µM (inactive) | > 100 µM (inactive) | > 100 µM (inactive) | > 100 µM (inactive) | > 100 µM (inactive) | > 100 µM (inactive)
3 | CC1(C)CCCCCCC2CC2CCCCCC(C)(C)C1=O (stereo not given) | > 100 µM (inactive) | > 100 µM (inactive) | 42 µM (inactive) | > 100 µM (inactive) | > 100 µM (inactive) | 64 µM (inactive) | > 100 µM (inactive) | 92.5 µM (inactive) | > 100 µM (inactive) | 49.7 µM (inactive) | > 100 µM (inactive) | 29.9 µM (inactive) | 62.5 µM (inactive) | 41.9 µM (inactive) | 19.8 µM (inactive) | 37.8 µM (inactive) | > 100 µM (inactive) | > 100 µM (inactive) | 24.3 µM (inactive) | > 100 µM (inactive)
4 | CNC(=O)CCCN(C)C(=O)CCCCC(=O)N(C)C | > 54.2 µM (inactive) | > 59.6 µM (inactive) | > 57.1 µM (inactive) | > 61.1 µM (inactive) | > 67.8 µM (inactive) | > 55.3 µM (inactive) | > 59.8 µM (inactive) | > 59.7 µM (inactive) | > 60.8 µM (inactive) | 36.6 µM (inactive) | 34.4 µM (inactive) | > 55.2 µM (inactive) | > 60.1 µM (inactive) | > 57.9 µM (inactive) | > 57.5 µM (inactive) | > 59.3 µM (inactive) | > 56.8 µM (inactive) | > 61.1 µM (inactive) | > 100 µM (inactive) | > 57.4 µM (inactive)
5 | COC1=CC2(CC(OC)=C1OC)OC21COc2ccccc2C1=O (stereo not given) | > 100 µM (inactive) | > 100 µM (inactive) | 51.4 µM (inactive) | 45.1 µM (inactive) | 62.5 µM (inactive) | 37.7 µM (inactive) | > 100 µM (inactive) | > 100 µM (inactive) | > 100 µM (inactive) | 43 µM (inactive) | > 100 µM (inactive) | 56.2 µM (inactive) | > 100 µM (inactive) | 39.4 µM (inactive) | 50.5 µM (inactive) | 44.4 µM (inactive) | > 100 µM (inactive) | 47.2 µM (inactive) | 46 µM (inactive) | 60.1 µM (inactive)
6 | O=[N+]([O-])c1cc([As](Br)c2ccc(O)c([N+](=O)[O-])c2)ccc1O | 1.63 µM (inactive) | 0.733 µM (active) | 3.43 µM (inactive) | 1.86 µM (inactive) | 1.5 µM (inactive) | 1.44 µM (inactive) | 1.77 µM (inactive) | 2 µM (inactive) | 1.79 µM (inactive) | 1.49 µM (inactive) | 1.95 µM (inactive) | 0.462 µM (active) | 1.38 µM (inactive) | 1.87 µM (inactive) | 1.48 µM (inactive) | 1.69 µM (inactive) | 1.58 µM (inactive) | 1.65 µM (inactive) | 1.56 µM (inactive) | 1.47 µM (inactive)
7 | CCSCCC(N)C(=O)O (stereo not given) | > 100 µM (inactive) | > 100 µM (inactive) | > 100 µM (inactive) | > 100 µM (inactive) | > 100 µM (inactive) | > 100 µM (inactive) | > 100 µM (inactive) | > 100 µM (inactive) | > 100 µM (inactive) | > 100 µM (inactive) | > 100 µM (inactive) | > 100 µM (inactive) | > 100 µM (inactive) | > 100 µM (inactive) | > 100 µM (inactive) | > 100 µM (inactive) | > 100 µM (inactive) | > 100 µM (inactive) | > 100 µM (inactive) | > 100 µM (inactive)
8 | NCCN1C(=O)c2ccccc2C1(O)c1ccc(Cl)cc1 (stereo not given) | 17.6 µM (inactive) | 18.5 µM (inactive) | 19.6 µM (inactive) | 23 µM (inactive) | 48.8 µM (inactive) | 17.2 µM (inactive) | 21.6 µM (inactive) | 16.9 µM (inactive) | 37.2 µM (inactive) | 16.4 µM (inactive) | 14.2 µM (inactive) | 19.7 µM (inactive) | 10.4 µM (inactive) | 21.3 µM (inactive) | 16.6 µM (inactive) | 17.1 µM (inactive) | 17.9 µM (inactive) | 35.2 µM (inactive) | 17.3 µM (inactive) | 16.4 µM (inactive)
9 | O=C(CC(=O)c1ccccc1NC1=Cc2ccccc2C(=O)C1=O)C(=O)NC1=C(Cl)C(=O)c2ccccc2C1=O | 1.89 µM (inactive) | 2.43 µM (inactive) | 5.26 µM (inactive) | 3.56 µM (inactive) | 7.52 µM (inactive) | 2.48 µM (inactive) | 4.31 µM (inactive) | 4.28 µM (inactive) | 3.12 µM (inactive) | 0.752 µM (active) | 14.7 µM (inactive) | 1.29 µM (inactive) | 4.51 µM (inactive) | 7.98 µM (inactive) | 1.13 µM (inactive) | 2.04 µM (inactive) | 22.3 µM (inactive) | 1.8 µM (inactive) | 2.34 µM (inactive) | 1.85 µM (inactive)
10 | O=C1OCC2=C1C(c1ccc(Cl)cc1)c1cc3c(cc1O2)OCO3 (stereo not given) | 6.21 µM (inactive) | 2.88 µM (inactive) | 3.72 µM (inactive) | 6.21 µM (inactive) | > 100 µM (inactive) | 4.65 µM (inactive) | 2.69 µM (inactive) | 3.45 µM (inactive) | 9.12 µM (inactive) | 3.76 µM (inactive) | 8.24 µM (inactive) | 1.82 µM (inactive) | > 35.8 µM (inactive) | 21 µM (inactive) | 3.66 µM (inactive) | > 21.8 µM (inactive) | 8.05 µM (inactive) | 10.5 µM (inactive) | 4.06 µM (inactive) | 4.36 µM (inactive)
11 | COc1ccc2[nH]c3c([N+](=O)[O-])ccc(Cl)c3c(=O)c2c1 | 27.2 µM (inactive) | 7.67 µM (inactive) | 16.3 µM (inactive) | 15.8 µM (inactive) | 34.4 µM (inactive) | 16.7 µM (inactive) | 17.9 µM (inactive) | > 45.5 µM (inactive) | 22 µM (inactive) | 23.9 µM (inactive) | 91.2 µM (inactive) | 2.99 µM (inactive) | 14 µM (inactive) | 44.1 µM (inactive) | 7.71 µM (inactive) | 11.5 µM (inactive) | 20.2 µM (inactive) | 22.9 µM (inactive) | 13.6 µM (inactive) | 18 µM (inactive)
12 | C[C@]12CC[C@H]3[C@@H](CCC4=CC(=O)CC[C@@]43C)[C@@H]1CC[C@@H]2OC(=O)c1cccc2c(=O)c3ccccc3[nH]c12 | > 100 µM (inactive) | > 100 µM (inactive) | 43.8 µM (inactive) | > 100 µM (inactive) | 75.3 µM (inactive) | 20.3 µM (inactive) | > 100 µM (inactive) | 37.2 µM (inactive) | > 100 µM (inactive) | 37.4 µM (inactive) | > 100 µM (inactive) | 16.3 µM (inactive) | 84.5 µM (inactive) | 7.57 µM (inactive) | 26.9 µM (inactive) | 99.5 µM (inactive) | > 100 µM (inactive) | > 100 µM (inactive) | 75.7 µM (inactive) | 29.4 µM (inactive)
13 | COc1ccccc1NC(=S)N/N=C1\C(=O)Nc2ccccc21 | 3.29 µM (inactive) | > 100 µM (inactive) | > 100 µM (inactive) | > 100 µM (inactive) | > 100 µM (inactive) | > 100 µM (inactive) | > 100 µM (inactive) | > 100 µM (inactive) | > 100 µM (inactive) | 73.5 µM (inactive) | > 100 µM (inactive) | > 100 µM (inactive) | > 100 µM (inactive) | 86.3 µM (inactive) | > 100 µM (inactive) | > 100 µM (inactive) | > 100 µM (inactive) | > 100 µM (inactive) | > 100 µM (inactive) | > 100 µM (inactive)
14 | Cc1cc(-c2nc3cc(F)ccc3s2)ccc1NC(=O)[C@@H](N)CCCCN | 18.9 µM (inactive) | 2.65 µM (inactive) | 2.82 µM (inactive) | 6.04 µM (inactive) | 0.134 µM (active) | 2.69 µM (inactive) | 4.99 µM (inactive) | 1.3 µM (inactive) | 4.82 µM (inactive) | 13.4 µM (inactive) | 10.2 µM (inactive) | 2.17 µM (inactive) | 13.4 µM (inactive) | 1.87 µM (inactive) | 1.82 µM (inactive) | 5.71 µM (inactive) | < 0.0132 µM (active) | 13 µM (inactive) | 7.26 µM (inactive) | 9.55 µM (inactive)
